Consider 31 compounds from patent US12421225B2, “Heteroaromatic amide derivative and medicament containing the same” (KAKEN PHARMACEUTICAL CO., LTD., priority 2018, dated 2025).

The IC50 is the concentration that gives 50% inhibition. A low value points to greater potency in that assay.

One data set addresses human Nav1.5 (Homo sapiens (Human), UniProt Q14524). Kind of data set: Human Nav1.5 inhibitory activity evaluation (automated patch clamp QPatch16X, HEK293 cells stably expressing human Nav1.5). Format: cell-based. As to the method: Test Example 2: Human Nav1.5 Inhibitory Activity Evaluation
A cell line in which human Nav1.5 was stably expressed in HEK293 cells was used. DMEM supplemeted with 15% fetal bovine serum, 500 μg/ml geneticin, 100 units/ml penicillin, 100 μg/ml streptomycin, 20 mM HEPES was used as culture medium under the conditions of 37° C. and 5% CO2 in T175 flasks to carry out culturing. When 60-80% confluence was reached, a cell suspension of about 0.5-5.0×10^6 cells/mL was prepared. The amount of current through human Nav1.5 was recorded using a fully automatic patch clamp device QPatch16X at room temperature. As the extracellular solution, 145 mM NaCl, 4 mM KCl, 1 mM MgCl2, 2 mM CaCl2, 10 mM Glucose, and 10 mM HEPES at pH 7.4 was used. As the intracellular solution, 135 mM CsF, ⅕ mM EGTA/CsOH, 10 mM HEPES, and 10 mM NaCl at pH 7.3 was used. The test compounds were dissolved in DMSO and diluted with the extracellular solution to attend the DMSO concentration of 0.1% at the time of assay.
The current response was obtained at a sampling frequency of 25 kHz, and noise was removed with a 3 kHz low-pass filter. The holding potential was −80 mV. Correction of the leakage current was carried out by applying a step pulse of −100 mV before the test pulse. In order to investigate human Nav1.5 inhibitory effect of the test compound, test pulses imitating the action potential of cardiomyocytes were continuously given 20 times. The test pulses were given before and after the test compound addition.
The inhibitory activity of the test compound was determined based on the amount of inward current generated by the 20th depolarization pulse, and the 50% inhibitory concentration (IC50) was calculated from the concentration-response curve.
Background: Patch clamp records ionic current or voltage across a cell membrane.

Another data set deals with human Nav1.7 (Homo sapiens (Human), UniProt Q15858). Kind of data set: Human Nav1.7 inhibitory activity evaluation (automated patch clamp QPatch16X, HEK293A cells stably expressing human Nav1.7 and human Navβ1). Format: cell-based. The method in brief:
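QPatch16X whole-cell recordings at room temperature from HEK293A cells stably expressing human Nav1.7 with Navβ1, CsF-based internal solution, pH 7.4 external, 0.1% DMSO. From −100 mV holding, protocol included a 15 s hold at a potential inactivating ~30-40% of channels; IC50 from inward current at the second −10 mV pulse.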

The mark [1] stands for this setting: human Nav1.5, automated patch clamp.
Setting [2] is: human Nav1.7, automated patch clamp.
Setting [3] is: HEK293 cells stably expressing human Nav1.5, automated patch clamp QPatch16X.
The mark [4] stands for this setting: HEK293A cells stably expressing human Nav1.7 and human Navβ1, automated patch clamp QPatch16X.

Chain of human Nav1.7 (Q15858 whole entry): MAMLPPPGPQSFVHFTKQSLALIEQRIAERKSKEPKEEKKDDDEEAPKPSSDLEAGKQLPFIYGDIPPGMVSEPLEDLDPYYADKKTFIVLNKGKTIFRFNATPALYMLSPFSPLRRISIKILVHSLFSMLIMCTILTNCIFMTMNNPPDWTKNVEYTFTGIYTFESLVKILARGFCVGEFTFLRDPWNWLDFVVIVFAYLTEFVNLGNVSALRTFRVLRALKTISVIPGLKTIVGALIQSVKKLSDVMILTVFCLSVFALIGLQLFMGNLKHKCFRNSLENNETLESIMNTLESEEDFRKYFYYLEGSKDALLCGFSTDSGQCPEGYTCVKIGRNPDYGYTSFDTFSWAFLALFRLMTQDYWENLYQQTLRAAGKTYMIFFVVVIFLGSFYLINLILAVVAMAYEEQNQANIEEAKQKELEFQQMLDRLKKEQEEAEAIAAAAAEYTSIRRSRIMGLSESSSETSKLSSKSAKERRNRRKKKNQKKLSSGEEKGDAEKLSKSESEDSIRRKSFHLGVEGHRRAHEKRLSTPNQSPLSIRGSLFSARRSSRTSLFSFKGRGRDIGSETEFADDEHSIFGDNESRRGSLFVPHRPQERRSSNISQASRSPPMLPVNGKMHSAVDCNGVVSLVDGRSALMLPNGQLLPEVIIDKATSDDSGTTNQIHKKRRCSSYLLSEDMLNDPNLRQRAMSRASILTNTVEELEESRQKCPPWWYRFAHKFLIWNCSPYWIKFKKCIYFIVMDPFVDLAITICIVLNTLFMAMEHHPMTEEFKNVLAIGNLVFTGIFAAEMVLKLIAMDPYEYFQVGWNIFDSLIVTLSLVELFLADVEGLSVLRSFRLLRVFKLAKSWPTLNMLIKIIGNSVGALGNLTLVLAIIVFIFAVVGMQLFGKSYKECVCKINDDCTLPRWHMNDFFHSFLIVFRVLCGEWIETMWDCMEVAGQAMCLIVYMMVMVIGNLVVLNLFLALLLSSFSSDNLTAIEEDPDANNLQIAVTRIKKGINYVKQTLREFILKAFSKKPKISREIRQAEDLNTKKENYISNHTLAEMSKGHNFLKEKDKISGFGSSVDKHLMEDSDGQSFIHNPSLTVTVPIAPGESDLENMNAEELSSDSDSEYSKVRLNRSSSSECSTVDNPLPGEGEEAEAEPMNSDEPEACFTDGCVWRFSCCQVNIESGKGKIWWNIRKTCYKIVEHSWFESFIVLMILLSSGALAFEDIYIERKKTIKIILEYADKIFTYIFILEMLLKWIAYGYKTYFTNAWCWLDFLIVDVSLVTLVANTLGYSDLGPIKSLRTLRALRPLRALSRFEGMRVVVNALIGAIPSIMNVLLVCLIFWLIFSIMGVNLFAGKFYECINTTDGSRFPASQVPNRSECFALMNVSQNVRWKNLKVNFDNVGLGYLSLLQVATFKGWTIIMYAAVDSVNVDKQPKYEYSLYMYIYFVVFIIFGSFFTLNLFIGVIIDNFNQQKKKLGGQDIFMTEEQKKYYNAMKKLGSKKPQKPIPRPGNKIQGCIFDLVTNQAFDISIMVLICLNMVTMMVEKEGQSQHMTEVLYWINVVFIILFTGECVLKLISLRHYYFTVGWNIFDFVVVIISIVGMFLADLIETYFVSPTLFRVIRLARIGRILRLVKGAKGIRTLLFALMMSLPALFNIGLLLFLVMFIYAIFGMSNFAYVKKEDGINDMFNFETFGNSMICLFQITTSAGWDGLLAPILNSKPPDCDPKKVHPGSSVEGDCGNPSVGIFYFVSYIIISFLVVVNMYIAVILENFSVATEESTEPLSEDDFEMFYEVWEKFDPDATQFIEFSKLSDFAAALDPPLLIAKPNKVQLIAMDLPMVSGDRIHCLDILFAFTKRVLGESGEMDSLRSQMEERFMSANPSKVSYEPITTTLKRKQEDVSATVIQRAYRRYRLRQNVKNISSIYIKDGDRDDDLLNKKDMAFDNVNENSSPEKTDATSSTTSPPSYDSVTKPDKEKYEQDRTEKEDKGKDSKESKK
Chain of human Nav1.7 (Q07699 19-218 partner): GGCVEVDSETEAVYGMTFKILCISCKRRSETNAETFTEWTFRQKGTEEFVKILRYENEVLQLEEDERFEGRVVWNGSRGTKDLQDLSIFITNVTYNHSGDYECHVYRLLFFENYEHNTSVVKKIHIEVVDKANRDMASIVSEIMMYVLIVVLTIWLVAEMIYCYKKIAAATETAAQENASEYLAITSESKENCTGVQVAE
Chain of human Nav1.5 (Q14524 whole entry): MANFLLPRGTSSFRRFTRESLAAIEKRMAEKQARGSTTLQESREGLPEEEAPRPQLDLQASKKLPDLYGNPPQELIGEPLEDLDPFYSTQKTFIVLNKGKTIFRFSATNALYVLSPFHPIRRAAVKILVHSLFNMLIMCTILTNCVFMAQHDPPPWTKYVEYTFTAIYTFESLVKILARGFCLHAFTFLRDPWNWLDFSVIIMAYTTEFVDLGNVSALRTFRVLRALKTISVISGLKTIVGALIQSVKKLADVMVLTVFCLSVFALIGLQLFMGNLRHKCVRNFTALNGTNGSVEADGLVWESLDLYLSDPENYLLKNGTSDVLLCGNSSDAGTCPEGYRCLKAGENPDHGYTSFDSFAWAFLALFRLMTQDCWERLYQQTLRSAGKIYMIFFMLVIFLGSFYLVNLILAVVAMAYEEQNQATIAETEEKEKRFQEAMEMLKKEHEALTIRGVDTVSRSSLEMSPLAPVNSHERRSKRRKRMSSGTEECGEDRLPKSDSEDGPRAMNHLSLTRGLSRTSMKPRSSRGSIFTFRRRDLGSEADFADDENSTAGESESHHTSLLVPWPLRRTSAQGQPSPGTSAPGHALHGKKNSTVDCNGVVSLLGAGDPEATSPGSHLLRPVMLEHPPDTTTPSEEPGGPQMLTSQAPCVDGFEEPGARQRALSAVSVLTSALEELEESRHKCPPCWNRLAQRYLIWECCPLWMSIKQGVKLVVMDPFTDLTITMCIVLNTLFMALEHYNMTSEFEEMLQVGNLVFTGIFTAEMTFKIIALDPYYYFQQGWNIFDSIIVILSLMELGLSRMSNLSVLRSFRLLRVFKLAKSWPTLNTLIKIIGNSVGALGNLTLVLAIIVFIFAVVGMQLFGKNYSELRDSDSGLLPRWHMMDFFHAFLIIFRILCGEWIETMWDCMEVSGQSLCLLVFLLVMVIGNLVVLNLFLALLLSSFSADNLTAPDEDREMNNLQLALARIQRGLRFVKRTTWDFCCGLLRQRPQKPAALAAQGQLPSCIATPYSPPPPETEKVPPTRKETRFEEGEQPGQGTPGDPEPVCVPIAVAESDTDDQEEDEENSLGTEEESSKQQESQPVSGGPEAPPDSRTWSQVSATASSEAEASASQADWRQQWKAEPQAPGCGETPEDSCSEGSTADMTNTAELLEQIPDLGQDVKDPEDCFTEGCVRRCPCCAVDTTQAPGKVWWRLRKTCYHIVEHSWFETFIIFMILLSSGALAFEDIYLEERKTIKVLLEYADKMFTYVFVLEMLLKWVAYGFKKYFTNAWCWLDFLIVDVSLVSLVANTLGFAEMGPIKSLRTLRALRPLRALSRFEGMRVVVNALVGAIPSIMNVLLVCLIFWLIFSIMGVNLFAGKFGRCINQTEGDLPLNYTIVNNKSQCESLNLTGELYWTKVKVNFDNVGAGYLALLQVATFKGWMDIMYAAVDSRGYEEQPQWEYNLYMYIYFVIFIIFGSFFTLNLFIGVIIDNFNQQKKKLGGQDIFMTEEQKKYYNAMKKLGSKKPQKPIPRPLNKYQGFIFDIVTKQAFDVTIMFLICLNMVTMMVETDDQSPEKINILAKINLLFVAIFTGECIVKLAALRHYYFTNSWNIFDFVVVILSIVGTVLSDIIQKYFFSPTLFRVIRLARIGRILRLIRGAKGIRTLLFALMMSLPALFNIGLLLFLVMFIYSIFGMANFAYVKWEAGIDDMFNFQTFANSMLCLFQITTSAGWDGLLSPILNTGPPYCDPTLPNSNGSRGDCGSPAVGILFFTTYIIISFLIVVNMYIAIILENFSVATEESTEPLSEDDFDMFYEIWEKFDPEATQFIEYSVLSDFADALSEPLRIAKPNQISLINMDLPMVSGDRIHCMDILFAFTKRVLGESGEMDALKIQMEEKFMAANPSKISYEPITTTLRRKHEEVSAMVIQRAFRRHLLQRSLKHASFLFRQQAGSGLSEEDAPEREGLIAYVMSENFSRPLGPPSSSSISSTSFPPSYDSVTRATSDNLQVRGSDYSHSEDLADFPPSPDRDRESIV

In the case of `O=C(N[C@H]1COc2ccc(C(F)(F)F)cc2C1)c1cc2n(n1)CCC(C(F)F)O2` (mixture of isomers) [Example 160, 5-(difluoromethyl)-N—((R)-6-(trifluoromethyl)chroman-3-yl)-6,7-dihydro-5H-pyrazolo[5,1-b][1,3]oxazine-2-carboxamide], the IC50 at human Nav1.5 (setting [1]) is no less than 3 µM; against human Nav1.7 (setting [2]), less than 1 µM.

On to `COc1ncc(-c2ccc3c(c2)C[C@@H](NC(=O)c2cc4n(n2)CC(CCOCC2CC2)O4)CO3)cn1` (mixture of isomers) [Example 203, 2-(2-(cyclopropylmethoxy)ethyl)-N—((R)-6-(2-methoxypyrimidin-5-yl)chroman-3-yl)-2,3-dihydropyrazolo[5,1-b]oxazole-6-carboxamide], for which the values for the IC50 against human Nav1.5 (setting [1]) and on human Nav1.7 (setting [2]) were no less than 3 µM and less than 1 µM, respectively.

Regarding `N#Cc1ccc2c(c1)C[C@@H](NC(=O)c1cc3n(n1)CCC(COCC1(F)CC1)O3)CO2` (mixture of isomers) [Example 532], the results for the IC50 against human Nav1.5 (setting [1]) and against human Nav1.7 (setting [2]) were no less than 3 µM and less than 10 µM, respectively.

As to `O=C(N[C@H]1COc2ccc(C(F)F)cc2C1)c1cn2c(n1)CCC(C(F)(F)F)C2` (single isomer, unassigned) [7 (isomer A)], the results for the IC50 against human Nav1.5 (setting [3]) and on human Nav1.7 (setting [4]) were 1 to 3 µM and less than 1 µM, respectively.

In the case of `O=C(N[C@H]1COc2ccc(C(F)F)cc2C1)c1cn2c(n1)CCC(C(F)(F)F)C2` (single isomer, unassigned) [7 (isomer B)], the IC50 against human Nav1.5 (setting [3]) was no less than 3 µM; at human Nav1.7 (setting [4]), less than 1 µM.

Take `O=C(NC1COc2cccc(Br)c2C1)c1cn2c(n1)CCC(C(F)(F)F)C2` (single isomer, unassigned) [9 (isomer A)]: the IC50 was no less than 3 µM against human Nav1.5 (setting [3]) and less than 10 µM on human Nav1.7 (setting [4]).

`O=C(NC1COc2cccc(Br)c2C1)c1cn2c(n1)CCC(C(F)(F)F)C2` (single isomer, unassigned) [9 (isomer B)]: the IC50 against human Nav1.5 (setting [3]) was no less than 3 µM; against human Nav1.7 (setting [4]) it was less than 1 µM.

Consider `O=C(N[C@H]1COc2ccc(Cl)cc2C1)c1cn2c(n1)CCC(OCC(F)(F)F)C2` (single isomer, unassigned) [39 (isomer A)], for which the IC50 against human Nav1.5 (setting [3]) was 1 to 3 µM; against human Nav1.7 (setting [4]), less than 10 µM.

On to `O=C(N[C@H]1COc2ccc(Cl)cc2C1)c1cn2c(n1)CCC(OCC(F)(F)F)C2` (single isomer, unassigned) [39 (isomer B)], for which the values for the IC50 at human Nav1.5 (setting [3]) and at human Nav1.7 (setting [4]) were no less than 3 µM and less than 10 µM, respectively.

For `CCCC1CCn2nc(C(=O)N[C@H]3COc4ccc(C#N)cc4C3)cc2O1` (single isomer, unassigned) [95 (isomer A)], the IC50 against human Nav1.5 (setting [3]) was no less than 3 µM; at human Nav1.7 (setting [4]) it was less than 1 µM.

`CCCOCC1CCn2nc(C(=O)N[C@H]3COc4ccc(C#N)cc4C3)cc2O1` (single isomer, unassigned) [101 (isomer B)]: the IC50 against human Nav1.5 (setting [3]) was no less than 3 µM; against human Nav1.7 (setting [4]), less than 10 µM.

Take `N#Cc1ccc2c(c1)C[C@@H](NC(=O)c1cc3n(n1)CCC(COCC1CC1)O3)CO2` (single isomer, unassigned) [103 (isomer B)]: the IC50 was no less than 3 µM on human Nav1.5 (setting [3]) and less than 10 µM against human Nav1.7 (setting [4]).

On to `O=C(N[C@H]1COc2ccc(CC(F)F)cc2C1)c1cc2n(n1)CCC(COCC1CC1)O2` (single isomer, unassigned) [109 (isomer A)], for which the IC50 is 1 to 3 µM against human Nav1.5 (setting [3]) and less than 1 µM at human Nav1.7 (setting [4]).

As for `O=C(N[C@H]1COc2ccc(CC(F)F)cc2C1)c1cc2n(n1)CCC(COCC1CC1)O2` (single isomer, unassigned) [109 (isomer B)], the IC50 at human Nav1.5 (setting [3]) was no less than 3 µM; on human Nav1.7 (setting [4]), less than 10 µM.

In the case of `O=C(N[C@H]1COc2ccc(-c3ccccn3)cc2C1)c1cc2n(n1)CCC(COCC1CC1)O2` (single isomer, unassigned) [111 (isomer A)], the IC50 at human Nav1.5 (setting [3]) was 1 to 3 µM; against human Nav1.7 (setting [4]), less than 1 µM.

Turning to `CC1(COCC2CCn3nc(C(=O)N[C@H]4COc5ccc(C#N)cc5C4)cc3O2)CC1` (single isomer, unassigned) [113 (isomer A)], the IC50 at human Nav1.5 (setting [3]) was 1 to 3 µM; against human Nav1.7 (setting [4]) it was less than 1 µM.

As to `CC1(COCC2CCn3nc(C(=O)N[C@H]4COc5ccc(C#N)cc5C4)cc3O2)CC1` (single isomer, unassigned) [113 (isomer B)], the IC50 against human Nav1.5 (setting [3]) and on human Nav1.7 (setting [4]) was less than 1 µM in each case.

As to `CCOCC1CCn2nc(C(=O)N[C@H]3COc4ccc(-c5ccccn5)cc4C3)cc2O1` (single isomer, unassigned) [124 (isomer A)], the figures for the IC50 against human Nav1.5 (setting [3]) and at human Nav1.7 (setting [4]) were no less than 3 µM and less than 1 µM, respectively.

Turning to `CCOCC1CCn2nc(C(=O)N[C@H]3COc4ccc(-c5ccccn5)cc4C3)cc2O1` (single isomer, unassigned) [124 (isomer B)], the concentration for half-maximal inhibition (IC50) is no less than 3 µM on human Nav1.5 (setting [3]) and less than 10 µM at human Nav1.7 (setting [4]).

On to `O=C(N[C@H]1COc2ccc(CC(F)F)cc2C1)c1cc2n(n1)CCC(COCC(F)(F)F)O2` (single isomer, unassigned) [127 (isomer A)], for which the IC50 at human Nav1.5 (setting [3]) is no less than 3 µM; against human Nav1.7 (setting [4]), less than 1 µM.

In the case of `O=C(N[C@H]1COc2ccc(COCC(F)(F)F)cc2C1)c1cc2n(n1)CCC(COCC(F)(F)F)O2` (single isomer, unassigned) [129 (isomer B)], the IC50 at human Nav1.5 (setting [3]) was 1 to 3 µM; against human Nav1.7 (setting [4]), less than 1 µM.

In the case of `O=C(N[C@H]1COc2ccc(-c3ccccn3)cc2C1)c1cc2n(n1)CCC(COCC(F)(F)F)O2` (single isomer, unassigned) [131 (isomer A)], the results for the IC50 on human Nav1.5 (setting [3]) and at human Nav1.7 (setting [4]) were 1 to 3 µM and less than 1 µM, respectively.

`O=C(N[C@H]1COc2ccc(-c3ccccn3)cc2C1)c1cc2n(n1)CCC(COCC(F)(F)F)O2` (single isomer, unassigned) [131 (isomer B)]: the IC50 against human Nav1.5 (setting [3]) is no less than 3 µM; against human Nav1.7 (setting [4]), less than 10 µM.

Regarding `N#Cc1ccc2c(c1)C[C@@H](NC(=O)c1cc3n(n1)CCC(COC(F)(F)F)O3)CO2` (single isomer, unassigned) [134 (isomer B)], the values for the IC50 against human Nav1.5 (setting [3]) and against human Nav1.7 (setting [4]) were no less than 3 µM and less than 10 µM, respectively.

`O=C(N[C@H]1COc2ccc(CC(F)F)cc2C1)c1cc2n(n1)CCC(COC(F)(F)F)O2` (single isomer, unassigned) [136 (isomer A)]: the IC50 against human Nav1.5 (setting [3]) and against human Nav1.7 (setting [4]) was less than 1 µM each time.

Take `O=C(N[C@H]1COc2ccc(CC(F)F)cc2C1)c1cc2n(n1)CCC(COC(F)(F)F)O2` (single isomer, unassigned) [136 (isomer B)]: the IC50 on human Nav1.5 (setting [3]) was 1 to 3 µM; on human Nav1.7 (setting [4]), less than 1 µM.

Take `O=C(N[C@H]1COc2ccc(COCC(F)(F)F)cc2C1)c1cc2n(n1)CCC(COC(F)F)O2` (single isomer, unassigned) [140 (isomer A)]: the IC50 against human Nav1.5 (setting [1]) was no less than 3 µM; against human Nav1.7 (setting [2]) it was less than 1 µM.

For the compound `O=C(N[C@H]1COc2ccc(COCC(F)(F)F)cc2C1)c1cc2n(n1)CCC(COC(F)F)O2` (single isomer, unassigned) [140 (isomer B)], the IC50 against human Nav1.5 (setting [1]) is 1 to 3 µM; on human Nav1.7 (setting [2]), less than 1 µM.

As for `O=C(N[C@H]1COc2ccc(CCOC(F)F)cc2C1)c1cc2n(n1)CCC(COC(F)F)O2` (single isomer, unassigned) [142 (isomer A)], the figures for the IC50 on human Nav1.5 (setting [1]) and at human Nav1.7 (setting [2]) were 1 to 3 µM and less than 1 µM, respectively.

`O=C(N[C@H]1COc2ccc(CCOC(F)F)cc2C1)c1cc2n(n1)CCC(COC(F)F)O2` (single isomer, unassigned) [142 (isomer B)]: the IC50 against human Nav1.5 (setting [1]) is no less than 3 µM; against human Nav1.7 (setting [2]) it was less than 1 µM.

As to `N#Cc1ccc2c(c1)C[C@@H](NC(=O)c1cc3n(n1)CCC(CCOC(F)F)O3)CO2` (single isomer, unassigned) [146 (isomer B)], the IC50 on human Nav1.5 (setting [1]) is no less than 3 µM; against human Nav1.7 (setting [2]), less than 1 µM.
